Measurements from patent US12584915B2, “Glyphosate biosensor” (priority 2019, dated 2026).
Like-named read-outs stand apart in the source and are kept apart here.

B1: E177NΔ (protein)
chain: EEQEKALNFGIISTESQQNLKPQWTPFLQDMEKKLGVKVNAFFAPDYAGIIQGMRFNKVDIAWYGNLSAMEAVDRANGQVFAQTVAADGSPGYWSVLIVNKDSPINNLNDLLAKRKDLTFGNGDPCSTSGFLVPGYYVFAKNNISASDFKRTVNAGHETNALAVANKQVDVATNNTNNLDKLKTSAPEKLKELKVIWKSPLIPGSPIVWRKNLSETTKDKIYDFFMNYGKTPEEKAVLERLGWAPFRASSDLQLVPIRQLALFKEMQGVKSNKGLNEQDKLAKTTEIQAQLDDLDRLNNALSA
B2: E177N (protein)
chain: EEQEKALNFGIISTESQQNLKPQWTPFLQDMEKKLGVKVNAFFAPDYAGIIQGMRFNKVDIAWYGNLSAMEAVDRANGQVFAQTVAADGSPGYWSVLIVNKDSPINNLNDLLAKRKDLTFGNGDPCSTSGFLVPGYYVFAKNNISASDFKRTVNAGHETNALAVANKQVDVATNNTNNLDKLKTSAPEKLKELKVIWKSPLIPGDPIVWRKNLSETTKDKIYDFFMNYGKTPEEKAVLERLGWAPFRASSDLQLVPIRQLALFKEMQGVKSNKGLNEQDKLAKTTEIQAQLDDLDRLNNALSAMSSVSKAVQ

Legend:
WT (SEQ ID NO: 5) EcPhnD = biological target: T1, WT (SEQ ID NO: 5) EcPhnD (Escherichia coli, UniProt P16682, N152C); experiment: biochemical; assay type: binding, E. coli
T1 construct: made in house; host or cells: E. coli BL21 DE3
T1 sequence (P16682 27-338 N152C): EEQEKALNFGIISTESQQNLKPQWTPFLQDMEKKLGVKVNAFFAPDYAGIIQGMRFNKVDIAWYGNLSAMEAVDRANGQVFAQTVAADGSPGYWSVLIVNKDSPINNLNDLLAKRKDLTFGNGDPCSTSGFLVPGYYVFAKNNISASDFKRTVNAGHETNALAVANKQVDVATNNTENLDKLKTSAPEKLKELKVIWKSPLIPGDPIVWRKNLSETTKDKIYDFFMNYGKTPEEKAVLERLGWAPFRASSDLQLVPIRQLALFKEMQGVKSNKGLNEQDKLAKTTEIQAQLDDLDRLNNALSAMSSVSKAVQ
Procedure: (§1) Fluorescent screening and data Analysis. All fluorescence measurements were collected on a SpectraM2 fluorescence spectrometer at 22° C. Acrylodan excitation was set-up at 359 nm and an emission sweep was collected between 400-600 nm. Coumarin conjugated PhnD was excited at 419 nm and an emission spectrum was collected between 430-520 nm. Titrations were performed by increasing concentration of ligand and monitoring the changes in fluorescence intensity at 465 nm for coumarin conjugates or the ratio of fluorescence at 570 nm/450 nm. Error bars represent the standard deviation from three individual titrations. The fluorescence intensity at each wavelength was measured three times for each ligand concentration and the average of the reading was calculated. The ratio of the two averages from each of the three titrations was used to calculate the standard deviation. Kd values were determined by fitting the titration data to the following single binding isotherm equation using Kaleidagraph, where F is the observed fluorescence at a certain ligand concentration [L], Fo is the fluorescence in the absence of ligand, and Fmax is the fluorescence at saturating ligand concentrations.

PND177NΔ (SEQ ID NO: 2) [1] = biological target: T2, PND177NΔ (SEQ ID NO: 2) (Escherichia coli, UniProt P16682, E203N/N152C); experiment: biochemical; assay type: binding, E. coli; details: for affinity of the sensor for the ligand, in words: PhnD-E177NΔ sensor
T2 construct: made in house; host or cells: E. coli BL21 DE3
Text: (§2) To determine the Kd values, the ratio of fluorescence between two wavelengths (570 nm/450 nm) was monitored as a function of increasing ligand concentrations (FIGS. 2 and 3). The titration data were fit to a single binding isotherm equation (eq. 1), where R is defined as the fluorescence ratio at a given ligand concentration [L], R0 is the fluorescence ratio in the absence of ligand and Rmax is the fluorescence ratio at saturating ligand concentrations.
as §1

PND177NΔ (SEQ ID NO: 2) [2] = experiment: biochemical; assay type: binding, E. coli; details: PhnD-E177NΔ sensor vs wild type
Text: as §2, §1

EcPhnD = EcPhnD (Escherichia coli, UniProt P16682); details: cited from earlier work
EcPhnD, sequence (P16682 27-338): as the sequence (P16682 27-338 N152C) above, with C126N counted along it

[3] = Fluorescence titration of acrylodan-labelled PhnD variants with glyphosate; assay type: binding
Text: The fluorescent reporter group attached to PhnD changes its emission properties in response to glyphosate binding which can be observed using fluorescent spectroscopy. This allows detection of a ligand (in this case glyphosate), where fluorescence emission can be used to determine the concentration of glyphosate in solution. Two main types of data were collected, Apo vs Saturated spectra showing fluorescence emission with and without glyphosate (not shown), and the other type was titrations done with increasing glyphosate concentrations to determine the Kd value for each mutant for glyphosate.
The purified, fluorescently-labeled mutants were tested for their ability to bind to glyphosate. Kd values were determined by monitoring the changes in fluorescence as a function of increasing ligand concentrations. Table 1 provides dissociation constants (Kd values) of different PhnD variants for glyphosate. All mutants contain a cysteine at position 126 for attachment of acrylodan. Values were obtained by monitoring fluorescence change as a function of ligand concentration using eq. 1.
as §2, with “Importantly, the change in fluorescence associated with ligand binding is ratiometric with a larger decrease in emission at lower wavelengths. To” for “To”
Fluorescent screening and data Analysis. All fluorescence measurements were collected on a SpectraM2 fluorescence spectrometer at 22° C. […] Titrations were performed by increasing concentration of ligand and monitoring the changes in fluorescence intensity at 465 nm for coumarin conjugates or the ratio of fluorescence at 570 nm/450 nm. […]

[4] = WT (SEQ ID NO: 5), read-out: WT Kd
[5] = PND177NΔ (SEQ ID NO: 2), acrylodan, ratio 570 nm/450 nm, read-out: PND177NΔ Kd

| Molecule | Kd (WT (SEQ ID NO: 5) EcPhnD; [4]) [µM] | Kd (PND177NΔ (SEQ ID NO: 2) [1]; [5]) [µM] | affinity of the sensor for the ligand, in words (PND177NΔ (SEQ ID NO: 2) [1]) | fold increase in affinity for glyphosate over the wild-type protein [3] | further results |
| --- | --- | --- | --- | --- | --- |
| NCCP(=O)(O)O [2-Aminoethyl Phosphate (2-AEP), 2-Aminoethyl Phosphonate] | 0.002 | 5.61 | – | – | reduction of affinity compared to the wild-type protein (PND177NΔ (SEQ ID NO: 2) [2]): more than 3 orders of magnitude; Kd (EcPhnD; natural ligand, background statement, read-out: Kd of PhnD for 2-AEP): ~0.005 µM |
| O=C(O)CNCP(=O)(O)O [Glyphosate] | – | – | – | – | Kd (WT (SEQ ID NO: 5) EcPhnD): 650 µM; Kd (PND177NΔ (SEQ ID NO: 2) [1]): 4.29 µM; Kd (EcPhnD; previous research, read-out: Kd of EcPhnD for glyphosate): ~650 µM |
| Arsenate | 230 | 10.7 | moderate affinities | – | – |
| Phosphate | 260 | 26.1 | moderate affinities | – | – |
| B1 | – | – | – | over 150 fold | fluorescence change associated with glyphosate binding ([3]; saturating glyphosate (FIG. 6)): large decrease in fluorescence |
| B2 | – | – | – | 80 fold | – |
